PubChem BioAssay (NCI)
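Method: 48-hour compound exposure of cells in 96-well plates, five concentrations, linear interpolation of endpoints. Abbreviation: GI50, concentration required for 50% inhibition of growth. At the TGI there is no net growth.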

What was measured:
Test in all cases: DTP human tumour cell line panel, 48 h
NCI-H226 lung = system: NCI-H226 lung
SK-MEL-2 melanoma = system: SK-MEL-2 melanoma
T-47D breast = system: T-47D breast
HS 578T breast = system: HS 578T breast
NCI-H522 lung = system: NCI-H522 lung
TK-10 renal = system: TK-10 renal
PC-3 prostate = system: PC-3 prostate
OVCAR-5 ovarian = system: OVCAR-5 ovarian
LOX IMVI melanoma = system: LOX IMVI melanoma
HOP-62 NSCLC = system: HOP-62 NSCLC
SF-539 CNS = system: SF-539 CNS
NCI-H460 lung = system: NCI-H460 lung
M14 melanoma = system: M14 melanoma
MDA-MB-231 breast = system: MDA-MB-231 breast
OVCAR-8 ovarian = system: OVCAR-8 ovarian
MCF7 breast = system: MCF7 breast
HCT-15 colon = system: HCT-15 colon
SNB-75 CNS = system: SNB-75 CNS
A549 NSCLC = system: A549 NSCLC
HCC-2998 colon = system: HCC-2998 colon
A498 renal = system: A498 renal
HL-60(TB) leukemia = system: HL-60(TB) leukemia
SR leukemia = system: SR leukemia
SF-295 CNS = system: SF-295 CNS
UO-31 renal = system: UO-31 renal
SNB-19 CNS = system: SNB-19 CNS
CCRF-CEM leukemia = system: CCRF-CEM leukemia

COc1ccccc1-c1ccc2c(N)c(C(=O)c3ccc4c(c3)OCO4)sc2n1 showed a GI50 (NCI-H226 lung) of 7.35 µM, a TGI (NCI-H226 lung) of 31.8 µM and a GI50 (SK-MEL-2 melanoma) of 3.38 µM. It also gave a TGI (SK-MEL-2 melanoma) of 10.9 µM, a GI50 (T-47D breast) of 3.39 µM and a TGI (T-47D breast) of 14.4 µM. For the same compound, the GI50 (HS 578T breast) was 7.97 µM, the TGI (HS 578T breast) was 47.1 µM and the GI50 (NCI-H522 lung) was 4.32 µM. The TGI (NCI-H522 lung) was 19.7 µM, the GI50 (TK-10 renal) was 12.8 µM and the TGI (TK-10 renal) was 28.6 µM. The GI50 (PC-3 prostate) was 10.6 µM, the TGI (PC-3 prostate) was 40.3 µM and the GI50 (OVCAR-5 ovarian) was 11.2 µM. For the same compound, the TGI (OVCAR-5 ovarian) was 29.5 µM, the GI50 (LOX IMVI melanoma) was 4.61 µM and the TGI (LOX IMVI melanoma) was 21.6 µM. The GI50 (HOP-62 NSCLC) was 3.52 µM, the TGI (HOP-62 NSCLC) was 14.7 µM and the GI50 (SF-539 CNS) was 4.94 µM. The TGI (SF-539 CNS) was 17 µM, the GI50 (NCI-H460 lung) was 4.04 µM and the TGI (NCI-H460 lung) was 16.7 µM. The GI50 (M14 melanoma) was 4.21 µM, the TGI (M14 melanoma) was 75 µM and the GI50 (MDA-MB-231 breast) was 2.81 µM. For the same compound, the TGI (MDA-MB-231 breast) was 8.59 µM, the GI50 (OVCAR-8 ovarian) was 4.57 µM and the TGI (OVCAR-8 ovarian) was 16.7 µM. The GI50 (MCF7 breast) was 4.82 µM, the TGI (MCF7 breast) was 98.6 µM and the GI50 (HCT-15 colon) was 4.08 µM. For the same compound, the TGI (HCT-15 colon) was 53.6 µM, the GI50 (SNB-75 CNS) was 3.27 µM and the TGI (SNB-75 CNS) was 15.6 µM. It also gave a GI50 (A549 NSCLC) of 4.05 µM, a TGI (A549 NSCLC) of 16.6 µM and a GI50 (HCC-2998 colon) of 12 µM. It also gave a TGI (HCC-2998 colon) of 29.1 µM, a GI50 (A498 renal) of 2.39 µM and a TGI (A498 renal) of 13.8 µM. The GI50 (HL-60(TB) leukemia) was 4.83 µM, the TGI (HL-60(TB) leukemia) was > 100 µM and the GI50 (SR leukemia) was 2.99 µM. The TGI (SR leukemia) was 31.1 µM, the GI50 (SF-295 CNS) was 3.98 µM and the TGI (SF-295 CNS) was 18.5 µM. It also gave a GI50 (UO-31 renal) of 4.12 µM, a TGI (UO-31 renal) of 16.7 µM and a GI50 (SNB-19 CNS) of 7.97 µM. The TGI (SNB-19 CNS) was 30.2 µM, the GI50 (CCRF-CEM leukemia) was 5.27 µM and the TGI (CCRF-CEM leukemia) was > 100 µM.
